Tests used:
[1] = system: SCN5A heterozygous mutant mice (KI) with galactose aging and adriamycin-induced DCM; assay: Heart size comparison after 2 weeks of drug intervention; format: in vivo; settings: KI+Wnt-C59 group vs KI group; intragastric 1 mg/kg.d for 2 weeks
Procedure: (§1) SPF-grade male C57BL/6 mice (purchased from Shanghai Jiesijie Experimental Animal Co., Ltd.) and SCN5A heterozygous mutant mice (aging 8 to 10 weeks and weighing 20 g to 25 g) were selected and intraperitoneally injected with d-galactose (500 mg/kg. d, sigma G5388) continuously for 8 weeks to construct aging models. Then the mice were intraperitoneally injected with adriamycin (4 intraperitoneal injections, total 10 mg/kg, Sangon A603456) to construct DCM models. After the models were constructed, cardiomyocytes were isolated from mice in each of the KI group and the WT group. The experimental scheme was approved by the Animal Management and Ethics Committee of Fudan University.
(§2) After the ultrasonic test, there were 3 groups for study: WT group, KI group, and KI+Wnt-C59 group. Adriamycin was used for molding, and at the same time, the KI+Wnt-C59 group was intragastrically administered with Wnt-C59 (1 mg/kg.d, MCE HY-15659) every day, and the WT and KI groups were intragastrically administered with an equal volume of sterile normal saline as a control. Mice in each group received normal diet and water, and the administration was conducted continuously for 2 weeks. The body weight was measured and recorded for mice in each group every day.
After 2 weeks of drug intervention, the mice were sacrificed and hearts thereof were collected for heart size comparison among the 3 groups.

[2] = system: SCN5A heterozygous mutant mice (KI) with galactose aging and adriamycin-induced DCM; assay: Evaluation on mouse cardiac function by echocardiography in aging and adriamycin-induced DCM model; format: in vivo; settings: KI+Wnt-C59 group vs KI group, intragastric 1 mg/kg.d for 2 weeks
Procedure: as §1
as §2, with “Mice in each group received normal diet and water, and the administration was conducted continuously for 2 weeks.” left out
The echocardiogram was measured 2 weeks after the administration, with a probe frequency of 30 MHz. Specifically, the mice were anesthetized with isoflurane, and an M-mode image was recorded when a heart rate of the mice was maintained at 450 to 500 beats/min. […]

46 types of tumor cells = settings: cited from earlier work

Cc1cc(-c2ccc(CC(=O)Nc3ccc(-c4cccnc4)cc3)cc2)ccn1 [Wnt-C59]
heart size [1]: significantly smaller
cardiac function (left ventricular ejection fraction, LVEF) [2]: significantly improved
proliferation of tumor cells (46 types of tumor cells): significantly inhibit
